From US12227495B2, “Herbicidal compounds” (SYNGENTA CROP PROTECTION AG, priority 2018, dated 2025)

Legend:
Format in all cases: in vivo
[1] = test system: Ipomoea hederacea (IPOHE); experiment: Post-emergence herbicide test, glasshouse, percentage damage; settings: 1000 g/ha, evaluated after 13 days
Outline: (§1)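 Percentage damage, recorded 13 days after treatment, is given as a five-point score (1=0-20%, 2=21-40%, 3=41-60%, 4=61-80%, 5=81-100%). Plants grown in soil pots under 24/16 °C, 14 h light and 65% humidity received a 500 g/ha spray (unless stated otherwise).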

Setaria faberi (SETFA) [2] = experiment: as above; settings: 1000 g/ha, evaluated after 13 days
Outline: as §1

Solanum nigrum (SOLNI) [3] = experiment: as above; settings: 1000 g/ha, evaluated after 13 days
Outline: as §1

[4] = test system: Echinochloa crus-galli (ECHCG); experiment: as above; settings: 1000 g/ha, evaluated after 13 days
Outline: as §1

Lolium perenne (LOLPE) [5] = experiment: as above; settings: 1000 g/ha, evaluated after 13 days
Outline: as §1

[6] = test system: Amaranthus retoflexus (AMARE); experiment: as above; settings: 1000 g/ha, evaluated after 13 days
Outline: as §1

[7] = test system: Ipomoea hederacea (IPOHE); experiment: Pre-emergence herbicide test, glasshouse, percentage damage; settings: rate 1000 g/ha, evaluated after 13 days
Outline: as §1

Setaria faberi (SETFA) [8] = experiment: as above; settings: rate 1000 g/ha, evaluated after 13 days
Outline: as §1

Solanum nigrum (SOLNI) [9] = experiment: as above; settings: rate 1000 g/ha, evaluated after 13 days
Outline: as §1

[10] = test system: Echinochloa crus-galli (ECHCG); experiment: as above; settings: rate 1000 g/ha, evaluated after 13 days
Outline: as §1

Lolium perenne (LOLPE) [11] = experiment: as above; settings: rate 1000 g/ha, evaluated after 13 days
Outline: as §1

[12] = test system: Amaranthus retoflexus (AMARE); experiment: as above; settings: rate 1000 g/ha, evaluated after 13 days
Outline: as §1

Row | SMILES | percentage damage caused to the plant, IPOHE [1] | percentage damage caused to the plant, SETFA (Setaria faberi (SETFA) [2]) | percentage damage caused to the plant, SOLNI (Solanum nigrum (SOLNI) [3]) | percentage damage caused to the plant, ECHCG [4] | percentage damage caused to the plant, LOLPE (Lolium perenne (LOLPE) [5]) | percentage damage caused to the plant, AMARE [6] | Pre-emergence Test IPOHE percentage damage (five point scale) [7] | Pre-emergence Test SETFA percentage damage (five point scale) (Setaria faberi (SETFA) [8]) | Pre-emergence Test SOLNI percentage damage (five point scale) (Solanum nigrum (SOLNI) [9]) | Pre-emergence Test ECHCG percentage damage (five point scale) [10] | Pre-emergence Test LOLPE percentage damage (five point scale) (Lolium perenne (LOLPE) [11]) | Pre-emergence Test AMARE percentage damage (five point scale) [12]
1 | N#Cc1cc(F)cnc1Oc1cccc(Cl)c1-c1cc(C(F)F)no1 [Compound A85] | 5 (5=81-100%) | 5 (5=81-100%) | 5 (5=81-100%) | 5 (5=81-100%) | 5 (5=81-100%) | 5 (5=81-100%) | 5 (5=81-100%) | 5 (5=81-100%) | 5 (5=81-100%) | 5 (5=81-100%) | 5 (5=81-100%) | 5 (5=81-100%)
2 | FC(F)c1cc(-c2c(Br)cccc2Oc2cc(Cl)ccn2)on1 [Compound A86] | 4 (4=61-80%) | 4 (4=61-80%) | 4 (4=61-80%) | 4 (4=61-80%) | 4 (4=61-80%) | 4 (4=61-80%) | 1 (1=0-20%) | 5 (5=81-100%) | 2 (2=21-40%) | 5 (5=81-100%) | 4 (4=61-80%) | 4 (4=61-80%)
3 | N#Cc1ccnc(Oc2cccc(Br)c2-c2cc(C(F)F)no2)c1 [Compound A87] | 3 (3=41-60%) | 5 (5=81-100%) | 4 (4=61-80%) | 3 (3=41-60%) | 3 (3=41-60%) | 4 (4=61-80%) | 1 (1=0-20%) | 5 (5=81-100%) | 3 (3=41-60%) | 4 (4=61-80%) | 4 (4=61-80%) | 4 (4=61-80%)
4 | O=[N+]([O-])c1ccc(Oc2cccc(Br)c2-c2cc(C(F)F)no2)nc1 [Compound A88] | 2 (2=21-40%) | 4 (4=61-80%) | 4 (4=61-80%) | 4 (4=61-80%) | 3 (3=41-60%) | 5 (5=81-100%) | 1 (1=0-20%) | 5 (5=81-100%) | 4 (4=61-80%) | 5 (5=81-100%) | 4 (4=61-80%) | 5 (5=81-100%)
5 | FC(F)c1cc(-c2c(Br)cccc2Oc2ncc(Cl)cc2Cl)on1 [Compound A89] | 4 (4=61-80%) | 5 (5=81-100%) | 4 (4=61-80%) | 4 (4=61-80%) | 3 (3=41-60%) | 5 (5=81-100%) | 3 (3=41-60%) | 4 (4=61-80%) | 2 (2=21-40%) | 4 (4=61-80%) | 2 (2=21-40%) | 4 (4=61-80%)
6 | FC(F)c1cc(-c2c(Br)cccc2Oc2ccc(C(F)(F)F)cn2)on1 [Compound A90] | 4 (4=61-80%) | 5 (5=81-100%) | 4 (4=61-80%) | 4 (4=61-80%) | 4 (4=61-80%) | 5 (5=81-100%) | 3 (3=41-60%) | 5 (5=81-100%) | 4 (4=61-80%) | 5 (5=81-100%) | 5 (5=81-100%) | 4 (4=61-80%)
7 | N#Cc1ccnc(Oc2cccc(Cl)c2-c2cc(C(F)F)no2)c1 [Compound A91] | 4 (4=61-80%) | 4 (4=61-80%) | 4 (4=61-80%) | 4 (4=61-80%) | 4 (4=61-80%) | 4 (4=61-80%) | 4 (4=61-80%) | 5 (5=81-100%) | 3 (3=41-60%) | 5 (5=81-100%) | 4 (4=61-80%) | 4 (4=61-80%)
8 | FC(F)c1cc(-c2c(Cl)cccc2Oc2cc(Cl)ccn2)on1 [Compound A92] | 4 (4=61-80%) | 4 (4=61-80%) | 4 (4=61-80%) | 4 (4=61-80%) | 4 (4=61-80%) | 4 (4=61-80%) | 4 (4=61-80%) | 5 (5=81-100%) | 2 (2=21-40%) | 1 (1=0-20%) | 5 (5=81-100%) | 4 (4=61-80%)
9 | Fc1cc(Cl)cnc1Oc1c(F)cccc1-c1cc(C(F)F)no1 [Compound A93] | 3 (3=41-60%) | 5 (5=81-100%) | 3 (3=41-60%) | 4 (4=61-80%) | 3 (3=41-60%) | 5 (5=81-100%) | 3 (3=41-60%) | 4 (4=61-80%) | 4 (4=61-80%) | 4 (4=61-80%) | 3 (3=41-60%) | 4 (4=61-80%)
10 | Cc1cccc(-c2cc(C(F)F)no2)c1Oc1ncc(Cl)cc1F [Compound A94] | 1 (1=0-20%) | 3 (3=41-60%) | 4 (4=61-80%) | 2 (2=21-40%) | 2 (2=21-40%) | 4 (4=61-80%) | 1 (1=0-20%) | 2 (2=21-40%) | 2 (2=21-40%) | 3 (3=41-60%) | 2 (2=21-40%) | 4 (4=61-80%)
11 | Fc1cc(Cl)cnc1Oc1c(Cl)cccc1-c1cc(C(F)F)no1 [Compound A95] | 1 (1=0-20%) | 4 (4=61-80%) | 4 (4=61-80%) | 3 (3=41-60%) | 3 (3=41-60%) | 4 (4=61-80%) | 1 (1=0-20%) | 3 (3=41-60%) | 1 (1=0-20%) | 4 (4=61-80%) | 1 (1=0-20%) | 4 (4=61-80%)
12 | Fc1cc(Cl)cnc1Oc1ccccc1-c1cc(C(F)(F)F)cs1 [Compound A97, 5-chloro-3-fluoro-2-[2-[4-(trifluoromethyl)-2-thienyl]phenoxy]pyridine] | 4 (4=61-80%) | 5 (5=81-100%) | 4 (4=61-80%) | 4 (4=61-80%) | 3 (3=41-60%) | 5 (5=81-100%) | 2 (2=21-40%) | 4 (4=61-80%) | 2 (2=21-40%) | 3 (3=41-60%) | 2 (2=21-40%) | 4 (4=61-80%)
